# Tested on: Akt phosphorylation on Ser473
# Assay: Inhibition of activation of Akt kinase (phospho-Akt Ser473 assay in RBL-2H3 cells)
# Type: cell-based, Rat
# Details: IgE and antigen 15 min, normalized to total Akt
# Excerpt: The mast cell degranulation assay using the RBL-2H3 cell line (see example 6) was also used to determine the status of the PI3K/Akt axis. Activation of PI3K leads to production of PIP3 on the cytosolic side of the lipid bilayer. Akt is recruited to the PIP3 domain and subsequently activated by phosphorylation on residues Ser473 and Thr308. (Franke et al., Cell 81:727-736, (1995)). Once recruited to the membrane, it is phosphorylated and activated by other kinases (Hemmings, Science 275:628-630 (1997); Hemmings, Science 276:534 (1997); Downward. Science 279:673-674 (1998); Alessi et al., EMBO J. 15:6541-6551 (1996)). Western blotting of the phosphorylated Ser473 residue on Akt (phospho-Akt Ser473) is widely used to assess the level of activation of the PI3K/Akt axis.
# All buffers and solutions used for the phosphor-Akt Ser473 assay were from Meso Scale Discovery. Tris Lysis Buffer consisted of 150 mM NaCl, 20 mM Tris, pH 7.5, 1 mM EDTA, 1 mM EGTA and 1% Triton-X-100. Complete Tris Lysis Buffer was prepared prior to use by addition of protease inhibitor, phosphatase inhibitors and PMSF. The 10× Tris Wash Buffer consisted of 500 mM Tris, pH 7.5, 1.5 M NaCl and 0.2% Tween-20. Blocker A was made up of bovine serum albumin in Tris Wash Buffer, Read Buffer T was used according to manufacturer's instructions. The Whole Cell Lysate Kits used were phospho-Akt Ser473 (K111000, Lot K0011749) and total ERK1/2 (K11107D, Lot K0011698) as a loading control.
# Protein assay: protein concentration was determined using the BCA (bicinchoninic acid) Protein Assay kit according to the manufacturer's instructions. Briefly, duplicate 10 μl samples of bovine serum albumin (BSA) standards, blank and lysates were incubated in a 96-well plate with 0.2 ml working reagent for 30 min at 37° C. Plates were cooled to room temperature for 5 min and absorbance at 562 nm was measured in a multi-mode plate reader. Protein concentrations were calculated using FlexStation 3 software (SoftMax Pro version 5.3), Protein concentration of lysates was determined from a standard curve (BSA) using a linear curve fit.
# Phosphoprotein assay: protein phosphorylation was determined using the MULTI-SPOT® Assay System (Meso Scale Discovery), providing simultaneous detection of phosphorylated and total proteins. Briefly, capture antibodies against phosphorylated and total protein are patterned on distinct spots in the same well of 96-well plates. Sandwich immunoassay and electrochemiluminescence detection technology are combined to measure intensity of the emitted light from phosphorylated and total protein spots. Analysis of phosphor-Akt Ser473 was performed according to the manufacturer's instructions. The optimal amount of protein was determined at 5 μg lysate per well for ERK1/2 and 10 μg/well for phospho-Akt Ser473, Plates were blocked with 25 μl/well Blocker A for 1 h at room temperature with gentle agitation. During this time, the lysates were thawed and diluted to the desired protein concentration in complete Tris Lysis Buffer. Plates were washed four times in Tris Wash Buffer and 25 μl lysate per well added. Plates were incubated for 1-3 h at room temperature with agitation according to the manufacturer's recommendations. Plates were washed four times with Tris Wash Buffer, followed by addition of 25 μl/well of the respective detection antibody and incubation for 1 h at room temperature, with agitation. After a final four washes with Tris Wash Buffer 150 μl/well, Read Buffer T was added and plates read on a SECTOR Imager 6000 plate reader.
# The mean background signal from each plate was subtracted from averaged raw data. The amount of total protein phosphorylated was expressed as % phosphoprotein according to the manufacturer's (Meso Scale Discovery) instructions.
# Levels of phospho-Akt Ser473 were determined in IgE sensitized and antigen stimulated cells after treatment without (positive control) or with 1, 5 and 25 μM test compound and normalized to levels of total Akt.
Structure (SMILES),Level of phospho-Akt Ser473 (1 μM),Level of phospho-Akt Ser473 (5 μM),Level of phospho-Akt Ser473 (25 μM)
"CCCCCCCCCCCCCCCCN(C)CC(O)CS(=O)(=O)O (stereo not drawn) [Compound 1a, 2-hydroxy-3-(N-methylhexadecylammonio)propane-sulfonate]",80.8 ± 17.9 % positive control,62.4 ± 16.1 % positive control,9.7 ± 4.9 % positive control
"CCCCCCCCCCCCN(C)CC(O)CS(=O)(=O)O (stereo not drawn) [Compound 1c, 2-hydroxy-3-(N-methyldodecylammonio)propanesulfonate]",119.7 ± 35.7 % positive control,67.9 ± 17.3 % positive control,17.4 ± 6.4 % positive control

# Reference: patent US11453642B2, “Oxygenated amino- or ammonium-containing sulfonic acid, phosphonic acid and carboxylic acid derivatives and their medical use” (GRI BIO, INC., priority 2011, dated 2022)
